Experimental data taken from patent US20160287566A1, “Anti-demodectic active agents and topical compositions for the treatment of demodicosis in humans and animals” (priority 2015, published 2016).
“Also recorded” adds a separate entry of the source.

Assays:
Demodex = experiment: Human in vivo testing of topical compositions (inventor's self-test, once daily at night) on signs and symptoms of demodicosis
Text: Demodectic mites rapidly desiccate and die when removed from the body and cannot reproduce in vitro, and skin conditions triggered by demodex are part of a complex innate immune response not yet fully explained by medical research. […] Treatment is preferentially once-daily, at night, with topical applications, of a rinse-off shampoo/shower gel, and of a leave-on skin lotion. Treatment of the inflammatory response to demodex with compositions comprising the invention is novel and not previously reported. Treatment of the inflammatory response to demodex includes treatment of type 1 flushing rosacea, type 2 acne rosacea, type 4 ocular rosacea, demodicosis gravis, granulomatous rosacea, and pityriasis folliculorum, and treatment of demodicosis in mammalian quadrupeds, namely, demodectic mange.
Sebaceous glands and meibomian glands clogged by mite-detritus atrophy somewhat, extending the time for complete meibomian gland and pilosebaceous unit healing to approximately 110 days.^12 The foregoing results are consistent with the suppression or eradication of demodectic mites, establishing piroctone olamine treatment as anti-demodectic, as shown by the reduction or elimination of blepharitis, meibomian gland dysfunction, and papules about the eyelids, nose, lips, and lip margins.
The rinse-off cleanser of the compositions comprising the invention, is used as a typical topical shampoo/shower gel, and can be used over the entire scalp and body, with the exception that the rinse-off cleanser is applied to a wet body and lathered without running shower-water, so that the cleanser can be massaged onto the skin and scalp for 3 to 5 minutes, paying particular attention to the face and margins of the eyelids, and then rinsed off. Neither composition is intended to be applied directly onto the cornea, as the eyes are expected to be shut when applying either composition.
The leave-on lotion described herein is used as any typical lotion, and can be used over the entire body, paying particular attention to the face and margins of the eyes, preferentially at night. […]

Malassezia = experiment: Self-treatment of seborrheic dermatitis with climbazole topical products; assay type: in vivo, human; conditions: rinse-off shampoo/shower gel and leave-on lotion with 0.07% climbazole as active ingredient, MCT oil base
Text: A brief history underscores the relevance of the test results. […] Dermatitis caused a severe impairment in the quality of life. Therefore, beginning three years ago, the inventor studied dermal inflammations, to conduct an accurate differential diagnosis and treat their skin condition. […] Hegor's product however contains sodium lauryl sulfate, which irritates the skin and so this shampoo cannot be used as a leave-on lotion. Moreover, all commercial lotions are formulated with oils with carbon-chain lengths longer than 10 such that Malassezia metabolizes all commercial lotions, which greatly exacerbated the inventor's seborrheic dermatitis. (See, non-patent reference number 30, by Wilde.) Dissatisfied with commercial products that made seborrheic skin conditions worse, sixteen months ago the inventor compounded topical compositions, a rinse-off shampoo/shower gel and a leave-on lotion, where the active ingredient was 0.07% climbazole and the base-oil was exclusively MCT oil (caprylic/capric oil), comprised only of carbon chain lengths of C8 and C10. While using this compounded topical treatment, all symptoms of seborrheic dermatitis induced by Malassezia were eliminated approximately one year ago. […]

[1] = cited from earlier work
[2] = usage thousands of time in excess of the compositions disclosed; cited from earlier work

SMILES | red eye and dry eye symptoms (Demodex; under 0.07% climbazole-only compositions, after seborrheic dermatitis symptoms were eliminated) | symptoms of seborrheic dermatitis induced by Malassezia (Malassezia) | solubility in water [1] | anti-demodectic treatment effect (concluded from symptom relief) (Demodex; after compounding and testing the compositions, human test subject) | symptoms and signs of blepharitis, meibomian gland dysfunction, and papules about the eyelid margins and lip margins (Demodex; topical compositions with 0.14% piroctone olamine as oil in water emulsion, rinse-off shampoo/shower gel and leave-on lotion once daily at night) | toxicity in topical usage [2]
CC(C)(C)C(=O)C(Oc1ccc(Cl)cc1)n1ccnc1 (stereo not shown) [climbazole, 1-(4-Chlorophenoxy)-1-(imidazol-1-yl)-3,3-dimethyl-2-butanone] | increased significantly | eliminated | barely soluble |  |  | 
Cc1cc(CC(C)CC(C)(C)C)n(O)c(=O)c1.NCCO (stereo not shown) [piroctone olamine, 1-Hydroxy-4methyl-6-(2,4,4-trimethylpentyl)-2(1H) pyridinone, 2-aminoethanol salt] |  |  | barely soluble | effective anti-demodectic treatment | reduced and eliminated; also recorded: rapid and dramatic reduction | non-toxic
